Experimental data from patent EP4692107A1, “PEPTIDE HAVING SKIN CONDITION IMPROVEMENT ACTIVITY AND USE THEREOF” (Caregen Co., Ltd., priority 2023, dated 2026).

Columns and labels:
Assay type in all cases: cell-based
elastin = test: Extracellular matrix expression by immunofluorescence (confocal, Image J): elastin; conditions: human dermal fibroblasts; peptide at 10 µM, 50 µM or 100 µM, 48 hours; green fluorescence intensity; maximum increase (FIG. 2)
Experimental: (§1) To confirm the effect of a peptide consisting of the amino acid sequence of SEQ ID NO: 1 on increasing the expression of the dermal extracellular matrix. Specifically, human dermal fibroblasts were seeded in a 6-well plate at a density of 3x10^5 cells/well and cultured for 24 hours. After replacing with serum-free mesenchymal stem cell medium, the cells were cultured for 24 hours. A peptide was treated at concentrations of 10 µM, 50 µM, or 100 µM, respectively, and incubated at 37 °C for 48 hours. Human recombinant FGF protein was treated at 100 nM. After the culture was completed, the culture supernatant was removed and fixed with 4 % paraformaldehyde for 30 minutes. After washing with PBS, the cells were reacted with 0.5 % Triton X-100 for 15 minutes. After reacting with 3 % BSA for 1 hour, primary antibodies against collagen type 1, fibronectin, and elastin were diluted 1:100 and reacted overnight at 4 °C. Secondary antibody-FITC was diluted 1:500 and reacted at room temperature for 2 hours, followed by DAPI staining and mounting. The expression images of each marker were observed using a confocal microscope (Leica, Germany). Green fluorescence intensity was measured using Image J.
(§2) The results are illustrated in FIG. 2. […]

collagen type 1 = test: Extracellular matrix expression by immunofluorescence (confocal, Image J): collagen type 1; conditions: human dermal fibroblasts; peptide at 10 µM, 50 µM or 100 µM, 48 hours; green fluorescence intensity; maximum increase (FIG. 2)
Experimental: as §1, §2

human dermal fibroblasts = test: Fibroblast proliferation effect (SRB staining, absorbance at 560 nm); conditions: peptide at 10 µM, 50 µM or 100 µM, 72 hours, 37 °C, concentration-dependent, maximum increase (FIG. 1)
Experimental: To confirm the effect of a peptide consisting of the amino acid sequence of SEQ ID NO: 1 on promoting the proliferation of Fibroblasts. Specifically, human dermal fibroblasts were seeded in a 96-well plate at a density of 5x10^3 cells/well and cultured for 24 hours. After replacing with serum-free mesenchymal stem cell medium, the cells were cultured for 24 hours. The above peptide was treated at concentrations of 10 µM, 50 µM, or 100 µM, respectively, and incubated at 37 °C for 72 hours. As a positive control group, 50 nM of human recombinant FGF protein was treated. After completion of culturing, the culture supernatant was removed and the cells were fixed using ethanol. After washing with PBS, staining was performed by treating with SRB solution. After washing with 1 % acetic acid, cells were observed under a microscope and destained by treating with 20 mM tris solution. Cell viability was measured by measuring absorbance at a wavelength of 560 nm using a spectrophotometer (SpectraMax iD3, Molecular Devices (USA, CA)).
The results are illustrated in FIG. 1. From the results of FIG. 1, it may be confirmed that proliferation was induced in a concentration-dependent manner in the peptide treatment group, increasing by up to 1.62 times.

fibronectin = test: Extracellular matrix expression by immunofluorescence (confocal, Image J): fibronectin; conditions: human dermal fibroblasts; peptide at 10 µM, 50 µM or 100 µM, 48 hours; green fluorescence intensity; maximum increase (FIG. 2)
Experimental: as §1, §2

## AERRREKCRC [peptide]
elastin
  elastin expression increase compared to the control group: up to 2 times
Collagen type 1
  collagen type 1 expression increase compared to the control group: up to 1.32 times
Human dermal fibroblasts
  proliferation increase: up to 1.62 times
fibronectin
  fibronectin expression increase compared to the control group: up to 1.38 times
